The assay concerns P388 leukemia ip, CD2F1 mice, survival T/C. Nature of the assay: NCI In Vivo Anticancer Drug Screen. Data for tumor model P388 Leukemia (intraperitoneal) in CD2F1 (CDF1) mice. Conditions: endpoint: median survival time, higher = longer survival. The method, boiled down:
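Mice carrying the transplanted tumor received test compound or vehicle. Survival was recorded in each group, and the value is the treated-group measurement divided by that of the vehicle-treated control group.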

[1] abbreviates: dose: 50.0 mg/kg/injection, schedule: Q01DX005 (ip), vehicle: Klucel (hydroxypropylcellulose) (HPC).
[2] abbreviates: dose: 100.0 mg/kg/injection, schedule: Q01DX005 (ip), vehicle: Klucel (hydroxypropylcellulose) (HPC).
[3] abbreviates: dose: 200.0 mg/kg/injection, schedule: Q01DX005 (ip), vehicle: Klucel (hydroxypropylcellulose) (HPC).
Where [4] appears, read: dose: 50.0 mg/kg/injection, schedule: Q01DX005 (ip), vehicle: saline with Tween-80.
[5] abbreviates: dose: 100.0 mg/kg/injection, schedule: Q01DX005 (ip), vehicle: saline with Tween-80.
[6] abbreviates: dose: 200.0 mg/kg/injection, schedule: Q01DX005 (ip), vehicle: saline with Tween-80.
Setting [7] is: dose: 25.0 mg/kg/injection, schedule: Q01DX009 (ip), vehicle: saline.
The mark [8] stands for this setting: dose: 50.0 mg/kg/injection, schedule: Q01DX009 (ip), vehicle: saline.
[9] abbreviates: dose: 100.0 mg/kg/injection, schedule: Q01DX009 (ip), vehicle: saline.
The mark [10] stands for this setting: dose: 200.0 mg/kg/injection, schedule: Q01DX009 (ip), vehicle: saline.
Where [11] appears, read: dose: 400.0 mg/kg/injection, schedule: Q01DX009 (ip), vehicle: saline.
Where [12] appears, read: dose: 100.0 mg/kg/injection, schedule: Q01DX009 (ip), vehicle: saline with Tween-80.
[13] abbreviates: dose: 200.0 mg/kg/injection, schedule: Q01DX009 (ip), vehicle: saline with Tween-80.

Where “and” joins values, the source holds several entries; their conditions need not be identical. Equal values may be shown once. Inconclusive results and toxic doses are left out. Peptide text beside a SMILES is read from it. * marks the point of attachment. Boc = CC(C)(C)OC(=O)*

As to `O=c1[nH]cnc2cc(NCc3ccccc3)c([N+](=O)[O-])cc12`, the T/C is 100 % of control (dose: 100.0 mg/kg/injection, schedule: Q04DX003 (ip), vehicle: Klucel (hydroxypropylcellulose) (HPC)); 96 % of control (dose: 200.0 mg/kg/injection, schedule: Q04DX003 (ip), vehicle: Klucel (hydroxypropylcellulose) (HPC)); 94 % of control (dose: 400.0 mg/kg/injection, schedule: Q04DX003 (ip), vehicle: Klucel (hydroxypropylcellulose) (HPC)).
Turning to `COc1cc2cc3cc(-c4ccc(Cl)cc4)c(N4CCOCC4)nc3nc2cc1OC`, the T/C is 92 % of control (dose: 15.0 mg/kg/injection, schedule: Q01DX005 (ip), vehicle: saline with Tween-80); 93 % of control (dose: 30.0 mg/kg/injection, schedule: Q01DX005 (ip), vehicle: saline with Tween-80); 91 % of control (dose: 120.0 mg/kg/injection, schedule: Q01DX005 (ip), vehicle: saline with Tween-80); 93 % of control (dose: 240.0 mg/kg/injection, schedule: Q01DX005 (ip), vehicle: saline with Tween-80).
Turning to `CSCCC(NC(=O)OC(C)(C)C)C(=O)NC(CCSC)C(=O)NC(C)C(=O)O` (stereo not drawn) (Boc-Met-Met-Ala-OH; configuration not given here), the T/C under setting [1] was 98 % of control, the T/C under setting [2] is 102 % of control and the T/C under setting [3] is 102 % of control.
As for `S=C1N(c2ccc(Br)cc2)C2=Nc3ccccc3SC(=C2N=Nc2ccc(Br)cc2)N1c1ccc(Cl)cc1`, the T/C under setting [4] is 93 % of control, the T/C under setting [5] was 86 % of control and the T/C under setting [6] is 91 % of control.
As to `c1cc2c(ncn3nnnc23)[nH]1`, the T/C (dose: 6.25 mg/kg/injection, schedule: Q01DX009 (ip), vehicle: water) was 91 % of control; the T/C (dose: 12.5 mg/kg/injection, schedule: Q01DX009 (ip), vehicle: water) was 107 % of control; the T/C (dose: 25.0 mg/kg/injection, schedule: Q01DX009 (ip), vehicle: water) is 108 % of control; the T/C (dose: 50.0 mg/kg/injection, schedule: Q01DX009 (ip), vehicle: water) was 109 % of control; the T/C (dose: 100.0 mg/kg/injection, schedule: Q01DX009 (ip), vehicle: water) was 118 % of control.
For the compound `CC1(C)c2c3ccccc3cc3cccc(c23)[S+]1c1ccccc1` (stereo not drawn), the T/C reads like this: (dose: 5.0 mg/kg/injection, schedule: Q04DX003 (ip), vehicle: saline) 100 % of control; (dose: 10.0 mg/kg/injection, schedule: Q04DX003 (ip), vehicle: saline) 104 % of control; (dose: 20.0 mg/kg/injection, schedule: Q04DX003 (ip), vehicle: saline) 108 % of control.
`Oc1cccnc1`: the T/C by setting is: under setting [7], 100 % of control and 103 % of control; under setting [8], 99 % of control and 102 % of control; under setting [9], 102 % of control and 103 % of control; under setting [10], 103 % of control and 112 % of control; under setting [11], 100 % of control and 108 % of control; (dose: 600.0 mg/kg/injection, schedule: Q01DX009 (ip), vehicle: saline) 102 % of control and 111 % of control.
For `OCC1OC(n2ccc3c(Cl)ncnc32)C(O)C1O` (stereo not drawn), the T/C by setting is: (dose: 6.25 mg/kg/injection, schedule: Q01DX005 (ip), vehicle: suspension in saline) 110 % of control; (dose: 12.5 mg/kg/injection, schedule: Q01DX005 (ip), vehicle: suspension in saline) 117 % of control; (dose: 25.0 mg/kg/injection, schedule: Q01DX005 (ip), vehicle: suspension in saline) 96 % of control.
On to `CC(C)CC(N)C(=O)O` (stereo not drawn), for which the T/C (dose: 50.0 mg/kg/injection, schedule: Q01DX009 (ip), vehicle: Klucel (hydroxypropylcellulose) (HPC)) is 105 % of control; the T/C (dose: 100.0 mg/kg/injection, schedule: Q01DX009 (ip), vehicle: Klucel (hydroxypropylcellulose) (HPC)) was 105 % of control; the T/C (dose: 200.0 mg/kg/injection, schedule: Q01DX009 (ip), vehicle: Klucel (hydroxypropylcellulose) (HPC)) was 94 % of control.
On to `O=Cc1ccc(O)c(O)c1`, for which the T/C runs as follows: under setting [8], 106 % of control and 109 % of control; under setting [9], 110 % of control; under setting [11], 107 % of control.
For `Cc1c(C)c(C)c(S(=O)(=O)NCCNS(=O)(=O)c2c(C)c(C)c(C)c(C)c2C)c(C)c1C`, the T/C runs as follows: under setting [1], 103 % of control; under setting [2], 94 % of control; under setting [3], 93 % of control.
Take `CCN(C(=O)COc1ccc(Cl)cc1Cl)c1ccccc1C`: the T/C is 100 % of control (dose: 100.0 mg/kg/injection, schedule: Q04DX003 (ip), vehicle: saline with Tween-80); 100 % of control (dose: 200.0 mg/kg/injection, schedule: Q04DX003 (ip), vehicle: saline with Tween-80); 100 % of control (dose: 400.0 mg/kg/injection, schedule: Q04DX003 (ip), vehicle: saline with Tween-80).
`O=C1CCCC1(c1ccccc1)c1ccccc1`: the T/C reads like this: under setting [12], 90 % of control; under setting [13], 95 % of control; (dose: 400.0 mg/kg/injection, schedule: Q01DX009 (ip), vehicle: saline with Tween-80) 95 % of control.
With `S=C(Nc1ccc(N=Nc2ccccc2)cc1)SCc1ccc(Cl)cc1`, the T/C by setting is: under setting [8], 97 % of control; under setting [9], 103 % of control; under setting [10], 100 % of control; (dose: 200.0 mg/kg/injection, schedule: Q01DX009 (ip), vehicle: suspension in saline) 93 % of control.
Consider `CC(C)(C)OC(=O)N1CCCC1C1=N/C(=C\c2ccccc2)C(=O)O1` (stereo not drawn), for which the T/C runs as follows: under setting [4], 102 % of control; under setting [5], 111 % of control; under setting [6], 105 % of control.
`COc1cc(N)c(C)c2c(C)ccnc12`: the T/C was 106 % of control (dose: 30.0 mg/kg/injection, schedule: Q01DX005 (ip), vehicle: Klucel (hydroxypropylcellulose) (HPC)); 92 % of control and 97 % of control (dose: 60.0 mg/kg/injection, schedule: Q01DX005 (ip), vehicle: Klucel (hydroxypropylcellulose) (HPC)).
On to `O=C(Nc1ccc(NC(=O)c2ccc(C3=NCCCN3)cc2)cc1)c1ccc(C2=NCCCN2)cc1`, for which the T/C runs as follows: (dose: 12.5 mg/kg/injection, schedule: Q01DX009 (ip), vehicle: saline) 168 % of control; (dose: 12.5 mg/kg/injection, schedule: Q04DX003 (ip), vehicle: saline with Tween-80) 118 % of control; under setting [7], 250 % of control; under setting [8], 163 % of control.
In the case of `CCCCCCSCN(CC)CC`, the T/C is 103 % of control under setting [8], 107 % of control under setting [9] and 112 % of control under setting [10].
With `Cc1[nH]nc2c(=O)n(C)cnc12`, the T/C (dose: 25.0 mg/kg/injection, schedule: Q01DX005 (ip), vehicle: water) was 100 % of control; the T/C (dose: 50.0 mg/kg/injection, schedule: Q01DX005 (ip), vehicle: water) is 94 % of control; the T/C (dose: 100.0 mg/kg/injection, schedule: Q01DX005 (ip), vehicle: water) was 92 % of control; the T/C (dose: 200.0 mg/kg/injection, schedule: Q01DX005 (ip), vehicle: water) is 93 % of control; the T/C (dose: 400.0 mg/kg/injection, schedule: Q01DX005 (ip), vehicle: water) is 91 % of control.
As to `O=C(c1cc2c(cc1Br)OCO2)N1CCc2ccccc21`, the T/C was 93 % of control (dose: 50.0 mg/kg/injection, schedule: Q01DX009 (ip), vehicle: other); 105 % of control (dose: 100.0 mg/kg/injection, schedule: Q01DX009 (ip), vehicle: other); 109 % of control (dose: 200.0 mg/kg/injection, schedule: Q01DX009 (ip), vehicle: other).
Turning to `CCC12C(=O)C(CC)(C(c3ccccc3)=C1c1ccccc1)C1OC(=O)OC12` (stereo not drawn), the T/C is 97 % of control (dose: 50.0 mg/kg/injection, schedule: Q01DX009 (ip), vehicle: saline with Tween-80); 91 % of control under setting [12]; 86 % of control under setting [13].
Turning to `Nc1ccc2c(C(F)(F)F)cc(=O)oc2c1`, the T/C under setting [4] is 106 % of control, the T/C under setting [5] was 99 % of control and the T/C under setting [6] is 94 % of control.
`CN(/N=C/c1ccccc1)c1nnnn1-c1ccccc1`: the T/C is 103 % of control (dose: 50.0 mg/kg/injection, schedule: Q01DX005 (ip), vehicle: saline + Tween-80 + alcohol); 97 % of control (dose: 100.0 mg/kg/injection, schedule: Q01DX005 (ip), vehicle: saline + Tween-80 + alcohol); 89 % of control (dose: 200.0 mg/kg/injection, schedule: Q01DX005 (ip), vehicle: saline + Tween-80 + alcohol).

(Values after PubChem BioAssay AID330 (DTP/NCI, 2004).)
